Measurements: patent US20100135992A1, “Prolongation of Survival of an Allograft by Inhibiting Complement Activity” (Alexion Pharmaceuticals, Inc., priority 2006, published 2010)

Columns and labels:
[1] = tested on: cardiac allograft in presensitized rats; conditions: cyclosporin A 10 mg/kg/day i.m., sCR1 15 mg/kg single i.v. bolus; cited from earlier work
[2] = tested on: C3H heart allografts in presensitized BALB/c recipients; assay: C3H heart allograft survival and histology in skin-presensitized BALB/c recipients (Examples 1-2); type: in vivo, mouse; conditions: FIG. 2A
Source text: Rejection was defined as complete necrosis of the skin grafts.
Specimens were then embedded in paraffin, and sectioned for H&E staining. The microscopic sections were examined in a blinded fashion for severity of rejection by a pathologist. Criteria for graft rejection included the presence of vasculitis, thrombosis, hemorrhage and lymphocyte infiltration. These changes were scored as: 0, no change; 1, minimum change; 2, mild change; 3, moderate change; or 4, marked change.

[3] = tested on: C3H heart allografts in presensitized BALB/c mice; assay: Heart allograft survival, accelerated rejection in presensitized model (Example 4); type: in vivo, mouse; conditions: presensitized recipients
Source text: In these experiments, the presensitization was brought about by prior transplantation of a skin graft. In general, presensitization can occur not only as a result of having received an earlier allograft, but can also be caused by having received multiple blood transfusions or in women who have been pregnant. Besides such presensitization methods, allografts with an ABO mismatch will be rapidly attacked and rejected because of preformed antibodies to the ABO antigens unless steps are taken to prevent such an attack.
(§1) This model is designed to mimic presensitized transplantation in humans, especially in relation to accelerated humoral rejection. Recipient mice were split into eight groups of six to eight mice each. The treatments were as follow.
Group 3″ (BB5.1 alone)—mice were administered the anti-mouse complement monoclonal antibody BB5.1 at a dose of 40 mg/kg body weight delivered intraperitoneally on a daily basis beginning at day −1 and continuing until the endpoint.
Group 4″ (cyclophosphamide alone)—mice were administered cyclophosphamide intravenously at a dose of 40 mg/kg body weight on each of days 0 and 1.
Group 6″ (BB5.1 plus cyclophosphamide)—mice were administered BB5.1 intraperitoneally at a dose of 40 mg/kg body weight on a daily basis beginning at day −1 and continuing until the endpoint. […]

[4] = tested on: terminal complement activity; assay: Complement hemolytic assay of recipient mouse sera (heart model); type: in vivo; conditions: POD3, presensitized heart recipients, FIG. 3
Method: Complement Hemolytic Assay The purified anti-C5 mAb was serially diluted twofold (175-0.1 μg/ml) in GVB^2+ buffer (gelatin Veronal-buffered saline: 0.1% gelatin, 141 mM NaCl, 0.5 mM MgCl2, 0.15 mM CaCl2, and 1.8 mM sodium barbital) and added in triplicate (50 μl/well) to a 96-well plate. BALB/c mouse serum was diluted to 40% v/v with GVB^2+ buffer and added ([…]) to the rows of the same 96-well plate such that the final concentration of BALB/c mouse serum in each well was 20%. The plate was then incubated at room temperature for approximately 30 min while chicken erythrocytes were prepared. Chicken erythrocytes were washed 5×1 ml with GVB^2+ buffer and resuspended to a final concentration of 5×10^7/ml in GVB^2+. Four milliliters of the chicken erythrocytes were sensitized by adding anti-chicken RBC polyclonal antibody (Intercell Technologies, Hopewell, N.J., 0.1% v/v) and the cells were incubated at 4° C. for 15 min with frequent vortexing. The cells were then washed 2×1 ml with GVB^2+ and resuspended to a final volume of 2.4 ml in GVB^2+. […] The plate was read at OD 415 nm using a microplate reader and the percentage of hemolysis was determined using this formula: […]
In the current study, terminal complement activity was measured by assessing the ability of recipient mouse sera to lyse antibody presensitized chicken erythrocytes and was compared at the same time-point (POD3).

[5] = tested on: circulating anti-donor IgG and IgM antibodies; assay: Flow cytometry of circulating anti-donor antibodies (heart model); type: in vivo, mouse; conditions: POD3, presensitized heart recipients, FIG. 4A
Method: Flow Cytometry The circulating anti-donor specific IgG and IgM antibodies were evaluated in the recipient serum by FACScan flow cytometry (Becton Dickinson, Mountain View, Calif.). Glotz et al., (1993); Tyan et al. (1994). Briefly, C3H mouse splenocytes were isolated and incubated at 37° C. for 30 minutes with serum from naive control and experimental groups. To stain for total IgG, IgG1, IgG2a, IgG2b and IgM, the cells were washed and incubated with FITC-conjugated goat antibody specific for the Fc portion of mouse IgG or with phycoerythrin-conjugated goat antibody specific for the μ-chain of mouse IgM (Jackson ImmunoResearch Laboratories, West Grove, Pa.), or with FITC-conjugated goat anti-mouse IgG1 (CALTAG Laboratories, Burlingame, Calif.), or with FITC-conjugated goat anti-mouse IgG2a (CALTAG), or with FITC-conjugated goat anti-mouse IgG2b (CALTAG). After 1 hour of staining at 4° C., the cells were washed with PBS, resuspended at 5×10^6/mL, and analyzed by flow cytometry for mean channel fluorescence intensity, which represents the antibody-binding reactivity.

[6] = tested on: C3H heart allografts in presensitized BALB/c mice; assay: Histological changes of heart allografts at necropsy (Example 4); type: in vivo, mouse; conditions: endpoint, score 0 normal to 4 marked change
Source text: as §1

[7] = tested on: C3H heart allografts in presensitized BALB/c recipients; assay: Immunoperoxidase staining of heart allografts in presensitized mouse recipients at necropsy; type: in vivo; parameters: key: 0, negative; 1+, equivocal; 2+, weak; 3+, moderate; 4+, intense; conditions: heart allograft, POD 3
Source text: Immunohistochemistry Four micrometer sections were cut from tissue samples embedded in Tissue-Tek O.C.T gel (Optimum Cutting Temperature, Skura Finetek, Torrance, Calif.) mounted on gelatin-coated glass microscope slides and stained by a standard indirect avidin-biotin immunoperoxidase staining method using an Elite Vcctastain ABC kit (Vector Laboratories Inc., Burlingame, Calif.). Specimens were stained for CD4^+ and CD8^+ cells with biotin-conjugated rat anti-mouse CD4 mAb (clone YTS 191.1.2, Cedarlane Laboratories Ltd., Hornby, Ontario, Canada) and biotin-conjugated rat anti-mouse CD8 mAb (clone 53-6.7, Pharmingen, Franklin Lakes, N.J.), respectively. Intragraft monocyte/macrophage infiltration was detected by staining with biotin-conjugated rat anti-mouse Mac-1 mAb (Cedarlane Laboratories Ltd., Hornby, Ontario, Canada). Mouse IgG and IgM deposition in gratis was detected using biotin-conjugated goat anti-mouse-IgG and goat anti-mouse-IgM (Cedarlane). For identification of complement deposition, sections were serially incubated with goat anti-C3 or anti-C5 polyclonal Abs (Quidel, San Diego, Calif.), biotinylated rabbit anti-goat IgG (Vector Laboratories), and HRP-conjugated-streptavidin (Zymed Laboratories, South San Francisco, Calif.). Slides were washed with phosphate-buffered saline between steps, and examined under light microscopy. Negative controls were performed by omitting the primary antibodies. The immunostaining was scored in five high-power fields of each section, and five independent experiments were performed. The sections of immunoperoxidase staining were graded from 0 to 4+ according to the staining intensity: 0, negative; 1+, equivocal; 2+, weak staining; 3+, moderate staining; and 4+, very intensive staining.

[8] = tested on: C3H kidney allografts in presensitized BALB/c recipients; conditions: for nephrotoxicity: kidney allograft model development
Source text: Animals Male adult C3H (H-2^k) mice and BALB/c (H-2^d mice (Jackson Labs, Bar Harbor, Me.) weighing 25-30 g were chosen as donors and recipients, respectively. Animals were housed under conventional conditions at the Animal Care Facility, The University of Western Ontario, and were cared for in accordance with the guidelines established by the Canadian Council on Animal Care.
Skin Presensitization Full-thickness skin grafts taken from C3H donors were cut into 1×1 cm^2 pieces and transplanted onto the backs of BALB/c recipient mice. Rejection was defined as complete necrosis of the skin grafts.
The donor ureter was also sutured to the recipient bladder using 10-0 sutures. The native kidneys were removed immediately after grafting. Graft rejection leading to host death was used as the endpoint of rejection for kidney transplants.
Measurement of Serum Creatinine Serum samples were obtained at study endpoint (time of rejection or POD100) after kidney transplantation. Serum creatinine levels were quantitated in 10 μL samples using the Sigma Diagnostics (Sigma, St. Louis, Mo.) procedure, which measures creatinine by a kinetic modification of the Jaffe reaction (Junge et al., 2004). Graft Histology At necropsy, tissue samples were processed for hematoxylin and eosin (H&E) staining (Wang et al, JI 2003) and evaluated for vasculitis, thrombosis, hemorrhage and lymphocyte infiltration; changes were scored as: 0, none; 1, minimal; 2, mild; 3, moderate or 4, marked compared to normal tissues.

[9] = tested on: circulating anti-donor IgG and IgM antibodies; assay: Flow cytometry of circulating anti-donor antibodies (kidney model); type: in vivo, mouse
Method: Flow Cytometry Circulating anti-donor specific IgG and IgM antibodies were evaluated in recipient sera by flow cytometry. Briefly, C3H mouse splenocytes were isolated and incubated at 37° C. for 30 minutes with serum samples obtained at the indicated timepoints from mice from the various treatment groups. To stain for total IgG or specific antibody subclasses, the washed cells were incubated with FITC-conjugated goat anti-mouse antibodies specific for the Fc portion of mouse IgG, mouse IgG1, mouse IgG2a, mouse IgG2b or mouse IgG3 (all from (CALTAG Laboratories, Burlingame, Calif.) or with a phycoerythrin-conjugated goat antibody specific for mouse IgM (Jackson ImmunoResearch Laboratories, West Grove, Pa.) for 1 hour at 4° C., washed and analyzed on a FACScan flow cytometer (Becton Dickinson, Mountain View, Calif.) (Collins et al., 1999; Pratt et al., 1996). The results are expressed as mean channel fluorescence intensity as a measure of the level of each anti-donor isotype in the samples.

[10] = tested on: Bcl-2 and Bcl-xl proteins; assay: Western blot of kidney grafts; type: in vivo, mouse; conditions: POD100 (accommodated) or rejected grafts, FIG. 14
Source text: Western Blot Analysis Frozen kidney samples were sonicated, separated by electrophoresis and transferred to polyvinylidene difluoride (PVDF; Invitrogen) membranes. Intragraft expression of Bcl-2 and Bcl-XS/L was detected using the polyclonal sera N-19 and M-125, respectively (Santa Cruz Biotechnology, Inc.). Polyclonal anti-calsequestrin (Calbiochem) served as a sample loading control (Kobayashi et al., 1999). Antibody binding was detected by horseradish-peroxidase-conjugated goat anti-rabbit IgG and enhanced chemiluminescence development (Roche Laboratories) (Arp et al., 1996).

[11] = tested on: terminal complement activity; assay: Complement hemolytic assay of recipient mouse sera (kidney model); type: in vivo; conditions: POD7, presensitized kidney recipients, FIG. 12
Method: Complement Hemolytic Assay Terminal complement activity in recipient mouse sera was determined by standard methods to assess the ability of sera to lyse chicken erythrocytes presensitized with erythrocyte-specific antibodies as previously described (Wang et al., 1999).

[12] = tested on: C3H kidney allografts in presensitized BALB/c recipients; assay: Immunoperoxidase staining of kidney allografts in presensitized mouse recipients at necropsy; type: in vivo; parameters: key: 0, negative; 1+, equivocal; 2+, weak; 3+, moderate; 4+, intense; conditions: kidney allograft, at the time of rejection
Source text: Immunohistochemistry Tissue samples embedded in Optimum Cutting Temperature (O.C.T.) gel (Skura Finetek, Torrance, Calif.) were sectioned and stained for CD4^+, CD8^+ and Mac-1^+ infiltrating cells and for IgG, IgM, C3 and C5 deposition using an Elite Vectastain ABC kit (Vector Laboratories Inc., Burlingame, Calif.). Primary biotinylated antibodies included anti-CD4 (YTS 191.1.2, Cedarlane Laboratories Ltd., Hornby, Ontario, Canada), anti-CD8 (53-6.7, BD Biosciences, Franklin Lakes, N.J.) and anti-Mac-1 (Cedarlane). Intragraft IgG and IgM deposition was detected using biotinylated goat anti-mouse-IgG and goat anti-mouse-IgM (Cedarlane). Complement deposition was detected following serial incubation with goat anti-mouse C3 or anti-mouse C5 polyclonal Abs (Quidel, San Diego, Calif.), biotinylated rabbit anti-goat IgG (Vector Laboratories), and HRP-conjugated-streptavidin (Zymed Laboratories, South San Francisco, Calif.). Negative controls were performed by omitting the primary antibodies. The immunostaining was scored in five high-power fields of each section using tissue samples from five animals per experimental group. Immunoreactivity was graded from 0 to 4+ according to staining intensity as follows: 0, negative; 1+, equivocal; 2+, weak; 3+, moderate; and 4+, very intensive staining.

sCR1: soluble complement receptor 1, binds complements C3b and C4b
average time of graft rejection [1]: 44 days

O=P1(N(CCCl)CCCl)NCCCO1 (centres unmarked) [CyP, cyclophosphamide]
heart graft survival (time to rejection) [2]: 3.3 ± 0.5 days
Mean survival time [3]: 3.3 ± 0.5 days
terminal complement activity (lysis of antibody presensitized chicken erythrocytes by recipient sera) [4]: no effect
circulating anti-donor IgG levels [5]: partially down-regulated
Hemo (hemorrhage) median score [6]: 2.0
Infar (infarction) median score [6]: 4.0
Lymph (lymphocyte infiltration) median score [6]: 0.0
Throm (thrombosis) median score [6]: 3.0
Vasc (vasculitis) median score [6]: 2.0
C3 immunoperoxidase staining grade [7]: 3+
C5 immunoperoxidase staining grade [7]: 3+
CD4 immunoperoxidase staining grade [7]: 1+
CD8 immunoperoxidase staining grade [7]: 1+
IgG immunoperoxidase staining grade [7]: 3+
IgM immunoperoxidase staining grade [7]: 1+
Mac-1 immunoperoxidase staining grade [7]: 3+
nephrotoxicity [8]: significant nephrotoxicity

C[C@@H](N)CCNCCCCNC(=O)OCC(=O)NCCCCCCNC(=N)N [LF, LF15-0195]
circulating anti-donor IgG levels ([9]; kidney recipients at time of rejection, triple-therapy POD 100, FIG. 13A): partially reduced
predominant anti-donor IgG subclass ([9]; presensitized kidney recipients, FIG. 13B): IgG1, IgG2a and IgG3
expression of Bcl-2 and Bcl-xl proteins in kidney grafts [10]: undetectable
terminal/serum complement activity (in vitro serum hemolytic assay) [11]: no inhibitory effect
C3 immunoperoxidase staining [12]: 3+
C5 immunoperoxidase staining [12]: 3+
IgG immunoperoxidase staining [12]: 3+
IgM immunoperoxidase staining [12]: 1+
Mac-1 immunoperoxidase staining [12]: 4+
nephrotoxicity [8]: not associated with nephrotoxicity
kidney graft survival (time to rejection) ([8]; presensitized recipients, FIG. 11A): 6.0 ± 1.0 days
